Test results taken from patent EP3246325A1, “2-ACYLAMINOTHIAZOLE COMPOUND CRYSTALS” (priority 2011, dated 2013).
Counter-ions that a name gives are not always drawn.

Assays:
human c-mpl-Ba/F3 cell = test: Mouse oral administration test: blood plasma after oral dosing added to the human c-mpl-Ba/F3 cell proliferation test system; assay type: in vivo, male ICR mice; settings: 3 mg/kg orally; for oral absorption: verbal conclusion from Table 1, mice; for Cell proliferation activity (%): male ICR mice, blood sampled 2 hours after administration, maximum activity of each test compound = 100%
Protocol: Test Example 2: Mouse Oral Administration Test 3 mg/kg of the test compound suspended in an aqueous solution of 0.5% methylcellulose was orally administered to male ICR mice. […] Table 1 Human c-mpl-Ba/F3 cell proliferation activity of […] after orally administering test compounds

[1] = tested on: Ba/F3 cells where c-mpl was not introduced; test: Cell proliferation test with Ba/F3 cells where c-mpl was not introduced (counter-test); assay type: cell-based
Human c-mpl-Ba/F3 cells = test: Cell proliferation test for human c-mpl-Ba/F3 cells (WST-1/1-methoxy PMS absorbance); settings: based on the maximum cell proliferation activity of rhTPO being 100%
Protocol: Test Example 1 Cell Proliferation Test for Human c-mpl-Ba/F3 Cells
Human c-mpl-Ba/F3 cells at a concentration of 2 x 10^5 cells/mL were cultured at 37 degree C on a 96 well microplate using RPMI 1640 culture medium (100 microliter/ well) containing 10% fetal calf serum to which various concentrations of the test compound was added. After 24 hours from the start of culturing, 10 microliter/well of WST-1/1-methoxy PMS (cell measuring kit, Dojin) was added. Immediately after the addition and two hours later, the A450/A650 absorbance was measured using a microplate reader (Model 3350, Bio-Rad), and the increase in absorbance after 2 hours was interpreted to represent the proliferation activity of each test compound.

## O=C(Nc1nc(-c2cc(Cl)cs2)c(N2CCN(C3CCCCC3)CC2)s1)c1cnc(N2CCC(C(=O)O)CC2)c(Cl)c1 [listing 1 of 2 here]
Human c-mpl-Ba/F3 cell
  oral absorption: excellent oral absorption

## O=C(Nc1nc(-c2cc(Cl)cs2)c(N2CCN(C3CCCCC3)CC2)s1)c1cnc(N2CCC(C(=O)O)CC2)c(Cl)c1 [listing 2 of 2 here]
[1]
  cell proliferation effect: a cell proliferation effect was not observed
Human c-mpl-Ba/F3 cells
  Emax: 102%

## O=C(Nc1nc(-c2cc(Cl)cs2)c(N2CCN(C3CCCCC3)CC2)s1)c1cnc(N2CCC(C(=O)O)CC2)c(Cl)c1.O=C(O)/C=C\C(=O)O [1-(3-chloro-5-{ [4-(4-chlorothiophen-2-yl)-5-(4-cyclohexylpiperazin-1-yl)thiazol-2-yl]carbamoyl}pyridin-2-yl) piperidine-4-carboxylic acid maleic acid salt]
Human c-mpl-Ba/F3 cell; 0.3% blood plasma concentration
  Cell proliferation activity (%): < 10%
Human c-mpl-Ba/F3 cell; listed as compound X maleic acid B type crystals, 3 mg/kg
  oral absorption: inferior oral absorption

## O=C(Nc1nc(-c2cc(Cl)cs2)c(N2CCN(C3CCCCC3)CC2)s1)c1cnc(N2CCC(C(=O)O)CC2)c(Cl)c1.O=C(O)/C=C\C(=O)O [1-(3-chloro-5-{[4-(4-chlorothiophen-2-yl)-5-(4-cyclohexylpiperazin-1-yl)thiazol-2-yl]carbamoyl}pyridin-2-yl) piperidine-4-carboxylic acid maleic acid salt]
Human c-mpl-Ba/F3 cell; listed as compound X maleic acid salt C type crystal, 3 mg/kg
  oral absorption: excellent oral absorption

## O=C(Nc1nc(-c2cc(Cl)cs2)c(N2CCN(C3CCCCC3)CC2)s1)c1cnc(N2CCC(C(=O)O)CC2)c(Cl)c1 [Compound X hydrochloride, reference compound]
Human c-mpl-Ba/F3 cell; 10% blood plasma concentration
  Cell proliferation activity (%): 34%
